Measurements reported in US20120010161A1, “NOVEL AZAPEPTIDE OR AZAPEPTIDOMIMETIC COMPOUNDS INHIBITING BCRP AND/OR P-GP” (CENTRE NATIONAL DE LA RECHERCHE SCIENTIFIQUE, priority 2009, published 2012).
“Also recorded” adds a separate entry of the source.

Legend:
ABCG2 [1] = assay: Estimation of the level of expression of ABCG2 (western blot); assay type: cell-based, human; details: 5 μM, 3 h to 72 h
Procedure: Estimation of the level of expression of ABCG2. The cells HEK293 pcDNA3.1 or HEK293 pcDNA3.1 BCRP are seeded in sixteen 6 cm^2 Petri dishes and incubated for 24 hours at 37° C. under 5% CO2. After this incubation, the various wells are supplemented with 30 μL either of DMSO (controls) or of compound IA.2 dissolved in DMSO, corresponding to a final concentration after dilution of 5 μM. After 3 h, 24 h, 48 h or 72 h of incubation, the cells are trypsinized and centrifuged at 200 g for 5 minutes. The protein fraction is extracted with a hypotonic lysis buffer (10 mM Tris-Cl pH 7.5, 10 mM NaCl, 1 mM MgCl2, 1 mM DTT, protease inhibitors) and assayed with bicinchoninic acid (Sigma-Aldrich). Ten micrograms of this fraction are deposited on polyacrylamide gel of Laemmli type (U. K. Laemmli, Nature 1970, 227, 680) to separate the proteins, which are then transferred onto polyvinyl fluoride (pvdf) membrane for 60 minutes at 100 mA in a 10 mM CAPS pH 11.1 […] buffer, 10% methanol (Sigma-Aldrich). The pvdf membrane is then saturated for 30 minutes in a solution of powdered skimmed milk at 1% (w/v) in TBST buffer (Tris buffer saline 1×, Tween 20 0.1%). […] Revelation is performed using the “immobilon western” kit (Millipore) with the QuantityOne software (Biorad). […]

ABCG2 [2] = biological target: T1, ABCG2 (Homo sapiens, UniProt Q9UNQ0); assay: Type of inhibition: mitoxantrone efflux by ABCG2 at varied substrate and inhibitor concentrations (FIG. 2); assay type: cell-based; parameters: expressed in transfected cells; host or cells: HEK-293 transfected with pcDNA3.1-ABCG2; details: for type of inhibition of ABCG2: mitoxantrone 0 to 20 μM, inhibitor 0 to 20 μM
T1 sequence (Q9UNQ0 1-655): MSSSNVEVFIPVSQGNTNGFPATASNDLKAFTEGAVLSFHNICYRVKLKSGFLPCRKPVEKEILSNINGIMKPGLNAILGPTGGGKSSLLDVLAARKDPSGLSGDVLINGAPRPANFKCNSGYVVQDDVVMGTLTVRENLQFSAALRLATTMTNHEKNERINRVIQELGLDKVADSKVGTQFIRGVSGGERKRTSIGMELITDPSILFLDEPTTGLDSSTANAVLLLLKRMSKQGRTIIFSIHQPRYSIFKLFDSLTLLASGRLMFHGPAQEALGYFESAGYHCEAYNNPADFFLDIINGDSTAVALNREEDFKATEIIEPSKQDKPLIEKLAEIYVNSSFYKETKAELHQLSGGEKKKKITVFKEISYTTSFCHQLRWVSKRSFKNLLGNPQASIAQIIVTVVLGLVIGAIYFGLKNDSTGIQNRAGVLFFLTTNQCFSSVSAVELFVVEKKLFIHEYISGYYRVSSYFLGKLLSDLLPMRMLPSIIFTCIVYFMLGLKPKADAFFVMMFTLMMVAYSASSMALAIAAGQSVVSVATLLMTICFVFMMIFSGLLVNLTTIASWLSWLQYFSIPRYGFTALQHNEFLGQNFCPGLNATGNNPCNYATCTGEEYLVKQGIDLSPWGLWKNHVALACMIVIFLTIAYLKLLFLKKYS
Procedure: The efflux of mitoxantrone by ABCG2 was measured at substrate concentrations ranging from 0 to 20 μM (panels A-C) in the presence or absence of fixed concentrations of compound (IA.2) in a range from 0 to 20 μM (panels D-E). In FIG. 2, the results obtained by varying the […] concentration are presented as a representation, which is either direct in panel A or of Lineweaver-Burke form in panel B or of Eadie-Hofstee form in panel C. The results obtained by varying the […] concentration are presented in linear (panel D) or logarithmic (panel E) x-axis scale. The curves were adjusted by means of the SigmaPlot software.
This is confirmed by the Lineweaver-Burke and Eadie-Hofstee representations presented, respectively, in FIG. 2B and FIG. 2C. The representations of these two graphs are characteristic of this type of inhibition. The inhibition constant K of compound (IA.2) is estimated as about 1 μM from the adjustment of the points of FIG. 2D or FIG. 2E.

NIH-3T3 cells = assay: Cytotoxicity on cell growth, MTT test; assay type: cell-based; details: 72 hours
Procedure: The cells are seeded (10 000 cells/well) in 96-well plates and incubated for 24 hours at 37° C. under 5% CO2. Varied concentrations of mitoxantrone (from 0 to 20 μM in a constant final volume of 100 μL) are then added with an equal volume of each of the test compounds. The cells are then left to divide for 72 hours. The cytotoxicity is evaluated colorimetrically with 3-(4,5-dimethylthiazol-2-yl)-2,5-diphenyltetrazolium bromide (MTT).
Increasing concentrations of compound (IB.1) are applied to NIH-3T3 cells expressing or not expressing ABCB1, and whose residual vitality is evaluated after 72 hours of treatment by an MTT test. The results are illustrated in FIG. 9, in which the cells expressing ABCB1 are represented by empty circles, and those not expressing it by solid circles. […] It increases by 30-40% thereafter, but however remains limited to this value, up to a concentration equivalent to 40 times its IC50, whether or not ABCB1 is expressed.

| SMILES | level of expression of ABCG2 (ABCG2 [1]; HEK293 BCRP cells, vs DMSO) | level of expression of tubulin (control protein) (ABCG2 [1]; HEK293 cells) | Ki (ABCG2 [2]; ABCG2, mitoxantrone efflux, from adjustment of FIG. 2D or 2E, read-out: inhibition constant K) | type of inhibition of ABCG2 (ABCG2 [2]) | increase of cytotoxicity on NIH-3T3 cells (NIH-3T3 cells; above 5 times and up to 40 times its IC50, expressing or not ABCB1) | harmlessness on NIH-3T3 cells (NIH-3T3 cells; cells expressing or not ABCB1) | cytotoxicity on NIH-3T3 cells (NIH-3T3 cells; up to 5 times its IC50) |
| --- | --- | --- | --- | --- | --- | --- | --- |
| CC(C)(C)OC(=O)NN(C(=O)N[C@@H](CCCCNC(=O)OCc1ccccc1)C(=O)OC(C)(C)C)c1cccc(C(=O)OCc2ccccc2)c1 [IA.2, tert-Butyl ester of (2S)-6-(benzyloxycarbonylamino)-2-[1-(3′-(benzyloxycarbonyl)phenyl)-2-(tert-butoxycarbonyl)hydrazino-carbonylamino]hexanoic acid] | reduces the level of expression; also recorded: decrease in the level of expression | without affecting | ~1 µM | noncompetitive inhibitor |  |  |  |
| CC(C)(C)OC(=O)N[C@H](CNN(CCCCCCNC(=O)OCc1ccccc1)C(=O)OC(C)(C)C)CC(=O)OCc1ccccc1 [IB.1, Benzyl ester of (3S)-4-[2-(6-benzyloxycarbonylaminohexyl)-2-tert-butoxycarbonylhydrazino]-3-tert-butoxycarbonylaminobutyric acid] |  |  |  |  | 30-40% | harmlessness | negligible |
| CC(C)(C)OC(=O)N[C@H](CNN(CCCCCCNC(=O)OCc1ccccc1)C(=O)OCc1ccccc1)CC(=O)OCc1ccccc1 [IB.11, Benzyl ester of (3S)-4-[2-benzyloxycarbonyl-2-(6-benzyloxycarbonylaminohexyl)hydrazino]-3-tert-butoxycarbonyl-aminobutyric acid] |  |  |  | noncompetitive |  |  |  |
